One may read the IC50 as the concentration that inhibits the measured activity by half.

Results on 13 compounds are retold here after patent publication US10143695B2 (priority 2016, dated 2018).

Assay type in all cases: cell-based
The test system of assay [1] is NCI-N87 cells (HER2 expressing cells). Nature of the assay: CellTiter-Glo cell viability assay, NCI-N87. Particulars: Homo sapiens, NCI-N87; PBD compounds, 72 h incubation. How it is done:
(§1) PBD compounds and conjugates thereof were evaluated for their antiproliferation properties in tumor cell lines in vitro using CellTiter-Glo® (Promega Corp). Cells were plated in black walled 96-well plate and allowed to adhere overnight at 37° C. in a humidified atmosphere of 5% CO2. BT474, SKBR3, NCI-N87 cells (HER2 expressing cells), JIMT1 cells (HER2 medium expression level cells) and MCF7 cells (HER2 low expressing levels cells) and were plated at a density of 5,000 cells per well. The next day the medium was replaced with 50 μL fresh medium and 50 μL of 2× stocks of PBD compounds or antibody-PBD conjugate were added to appropriate wells, mixed and incubated for 72 h. CellTiter-Glo® reagent was added to the wells at room temperature and the luminescent signal was measured after 10 min using a SpectraMax M5 plate reader (Molecular Devices). Dose response curves were generated using SoftMax Pro software. IC50 values were determined from four-parameter curve fitting.
For orientation: In ATP-based viability assays light output follows the ATP content of the culture.

Assay [2] concerns SKBR3 cells (HER2 expressing cells). Nature of the assay: CellTiter-Glo cell viability assay, SKBR3. Particulars: Homo sapiens, SK-BR-3; PBD compounds, 72 h incubation. How it is done: as §1
The test system of assay [3] is JIMT1 cells (HER2 medium expression level cells). Nature of the assay: CellTiter-Glo cell viability assay, JIMT1. The following applies: Homo sapiens, JIMT-1; PBD compounds, 72 h incubation. How it is done:
as §1

Assay [4] deals with BT474 cells (HER2 expressing cells). Nature of the assay: CellTiter-Glo cell viability assay, BT474. The following applies: Homo sapiens, BT-474; PBD compounds, 72 h incubation. The procedure:
as §1

Assay [5] has as its system MCF7 cells (HER2 low expressing levels cells). Nature of the assay: CellTiter-Glo cell viability assay, MCF7. The following applies: Homo sapiens, MCF7; PBD compounds, 72 h incubation. The procedure: as §1

For `C=C1C[C@H]2C=Nc3cc(OCCCC(=O)Nc4cn(C)c(C(=O)Nc5cc(C(=O)Nc6cc(C(=O)n7ccc8cc(S(C)(=O)=O)ccc87)n(C)c6)n(C)c5)n4)c(OC)cc3C(=O)N2C1` [Compound 20, (S,Z)-4-(4-(7-methoxy-2-methylene-5-oxo-2,3,5,11a-tetrahydro-1H-benzo[e]pyrrolo[1,2-a][1,4]diazepin-8-yloxy)butanamido)-1-methyl-N-(1-methyl-5-(1-methyl-5-(5-(methylsulfonyl)-1H-indole-1-carbonyl)-1H-pyrrol-3-ylcarbamoyl)-1H-pyrrol-3-yl)-1H-imidazole-2-carboxamide], the IC50 in assay [1] came out at 26 nM; in assay [2], 5.5 nM; in assay [3], 19.9 nM; in assay [4], 126 nM; in assay [5], 202 nM.

For the compound `C=C1CC2C=Nc3cc(OCCCC(=O)Nc4cn(C)c(C(=O)Nc5cc(C(=O)Nc6cc(C(=O)NCCCO)n(C)c6)n(C)c5)n4)c(OC)cc3C(=O)N2C1` (stereo in doubt) [Compound 56, (S,Z)-N-(5-(5-(3-hydroxypropylcarbamoyl)-1-methyl-1H-pyrrol-3-ylcarbamoyl)-1-methyl-1H-pyrrol-3-yl)-4-(4-(7-methoxy-2-methylene-5-oxo-2,3,5,11a-tetrahydro-1H-benzo[e]pyrrolo[1,2-a][1,4]diazepin-8-yloxy)butanamido)-1-methyl-1H-imidazole-2-carboxamide], the half-maximal inhibitory concentration (IC50) in assay [1] came to 13.6 nM; in assay [2] it was 7.9 nM; in assay [3], 9 nM; in assay [4], 23.3 nM; in assay [5] it was 54.5 nM.

In the case of `COc1cc2c(cc1OCCCC(=O)Nc1cc(C(=O)Nc3cc(C(=O)Nc4cc(C(=O)NCCCO)n(C)c4)n(C)c3)n(C)c1)N=C[C@@H]1Cc3ccccc3N1C2=O` [Compound 69], the IC50 came out at 3 nM in assay [1]; 1.5 nM in assay [2]; 1.5 nM in assay [3]; 4.7 nM in assay [4]; 69 nM in assay [5].

For `C=C1C[C@H]2C=Nc3cc(OCCCC(=O)Nc4cn(C)c(C(=O)Nc5cc(C(=O)Nc6cc(C(=O)n7ccc8ccc(N)cc87)n(C)c6)n(C)c5)n4)c(OC)cc3C(=O)N2C1` [Compound 13A, (S,Z)-N-(5-(5-(6-amino-1H-indole-1-carbonyl)-1-methyl-1H-pyrrol-3-ylcarbamoyl)-1-methyl-1H-pyrrol-3-yl)-4-(4-(7-methoxy-2-methylene-5-oxo-2,3,5,11a-tetrahydro-1H-benzo[e]pyrrolo[1,2-a][1,4]diazepin-8-yloxy)butanamido)-1-methyl-1H-imidazole-2-carboxamide], the 50% inhibitory concentration (IC50) in assay [1] was 0.73 nM; in assay [2], 0.28 nM; in assay [3], 3.6 nM; in assay [4], 2.5 nM; in assay [5], 4.4 nM.

Take `C=C1C[C@H]2C=Nc3cc(OCCCC(=O)Nc4cn(C)c(C(=O)Nc5cc(C(=O)Nc6cc(C(=O)n7ccc8cc(CN)ccc87)n(C)c6)n(C)c5)n4)c(OC)cc3C(=O)N2C1` [Compound 83, (S,Z)-N-(5-(5-(5-(aminomethyl)-1H-indole-1-carbonyl)-1-methyl-1H-pyrrol-3-ylcarbamoyl)-1-methyl-1H-pyrrol-3-yl)-4-(4-(7-methoxy-2-methylene-5-oxo-2,3,5,11a-tetrahydro-1H-benzo[e]pyrrolo[1,2-a][1,4]diazepin-8-yloxy)butanamido)-1-methyl-1H-imidazole-2-carboxamide]: the IC50 in assay [1] stood at 0.81 nM; in assay [2], 0.18 nM; in assay [3], 1.2 nM; in assay [4] it was 2.5 nM; in assay [5], 2.4 nM.

As to `COc1cc2c(cc1OCCCC(=O)Nc1cn(C)c(C(=O)Nc3cc(C(=O)Nc4cc(C(=O)n5ccc6cc(N)ccc65)n(C)c4)n(C)c3)n1)N=C[C@@H]1Cc3ccccc3N1C2=O` [Compound 78, (S)-N-(5-((5-(5-amino-1H-indole-1-carbonyl)-1-methyl-1H-pyrrol-3-yl)carbamoyl)-1-methyl-1H-pyrrol-3-yl)-4-(4-((8-methoxy-6-oxo-12a,13-dihydro-6H-benzo[5,6][1,4]diazepino[1,2-a]indol-9-yl)oxy)butanamido)-1-methyl-1H-imidazole-2-carboxamide], the IC50 turned out to be 0.29 nM in assay [1]; 0.06 nM in assay [2]; 1.1 nM in assay [3]; 0.63 nM in assay [4]; 1.9 nM in assay [5].

Take `C=C1C[C@H]2C=Nc3cc(OCCCC(=O)Nc4cn(C)c(C(=O)Nc5cc(C(=O)NCc6ccc(N)cc6)n(C)c5)n4)c(OC)cc3C(=O)N2C1` [Compound 3A, (S,Z)-N-(5-(4-aminobenzylcarbamoyl)-1-methyl-1H-pyrrol-3-yl)-4-(4-(7-methoxy-2-methylene-5-oxo-2,3,5,11a-tetrahydro-1H-benzo[e]pyrrolo[1,2-a][1,4]diazepin-8-yloxy)butanamido)-1-methyl-1H-imidazole-2-carboxamide]: the IC50 amounted to 14 nM in assay [1]; 9 nM in assay [2]; 91 nM in assay [3]; 69 nM in assay [4]; 214 nM in assay [5].

In the case of `COc1cc2c(cc1OCCCC(=O)Nc1cc(C(=O)Nc3cc(C(=O)Nc4cc(C(=O)NCCCO)n(C)c4)n(C)c3)n(C)c1)N=C[C@@H]1CCCN1C2=O` [Compound 66, (S,Z)-N-(3-hydroxypropyl)-4-(4-(4-(4-(7-methoxy-5-oxo-2,3,5,11a-tetrahydro-1H-benzo[e]pyrrolo[1,2-a][1,4]diazepin-8-yloxy)butanamido)-1-methyl-1H-pyrrole-2-carboxamido)-1-methyl-1H-pyrrole-2-carboxamido)-1-methyl-1H-pyrrole-2-carboxamide], the half-inhibitory concentration (IC50) in assay [1] came out at 27 nM; in assay [2] it was 16 nM; in assay [3], 15 nM; in assay [4] it was 86 nM; in assay [5], 121 nM.

On to `C=C1C[C@H]2C=Nc3cc(OCCCC(=O)Nc4cn(C)c(C(=O)Nc5cc(C(=O)N6Cc7ccc(N)cc7C6)n(C)c5)n4)c(OC)cc3C(=O)N2C1` [Compound 5A, (S,Z)-N-(5-(5-aminoisoindoline-2-carbonyl)-1-methyl-1H-pyrrol-3-yl)-4-(4-(7-methoxy-2-methylene-5-oxo-2,3,5,11a-tetrahydro-1H-benzo[e]pyrrolo[1,2-a][1,4]diazepin-8-yloxy)butanamido)-1-methyl-1H-imidazole-2-carboxamide], for which the IC50 turned out to be 5.3 nM in assay [1]; 0.97 nM in assay [2]; 16 nM in assay [3]; 2.9 nM in assay [4]; 24.2 nM in assay [5].

With `C=C1C[C@H]2C=Nc3cc(OCCCC(=O)Nc4cn(C)c(C(=O)Nc5cc(C(=O)Nc6cc(C(=O)n7ccc8cc(OC)ccc87)n(C)c6)n(C)c5)n4)c(OC)cc3C(=O)N2C1` [Compound 7A], the IC50 in assay [1] was determined as 0.3 nM; in assay [2] it was 0.15 nM; in assay [3], 1.1 nM; in assay [4], 0.6 nM; in assay [5] it was 2.7 nM.

Turning to `C=C1C[C@H]2C=Nc3cc(OCCCC(=O)Nc4cn(C)c(C(=O)Nc5cc(C(=O)Nc6cc(C(=O)n7ccc8cc(C(=O)OC)ccc87)n(C)c6)n(C)c5)n4)c(OC)cc3C(=O)N2C1` [Compound 8A, (S,Z)-methyl 1-(4-(4-(4-(4-(7-methoxy-2-methylene-5-oxo-2,3,5,11a-tetrahydro-1H-benzo[e]pyrrolo[1,2-a][1,4]diazepin-8-yloxy)butanamido)-1-methyl-1H-imidazole-2-carboxamido)-1-methyl-1H-pyrrole-2-carboxamido)-1-methyl-1H-pyrrole-2-carbonyl)-1H-indole-5-carboxylate], the half-inhibitory concentration (IC50) in assay [1] worked out at 2.9 nM; in assay [2], 0.14 nM; in assay [3], 0.55 nM; in assay [4], 0.83 nM; in assay [5], 3.7 nM.

Turning to `C=C1C[C@H]2C=Nc3cc(OCCCC(=O)Nc4cn(C)c(C(=O)Nc5cc(C(=O)Nc6cc(C(=O)n7ccc8cc(N)ccc87)n(C)c6)n(C)c5)n4)c(OC)cc3C(=O)N2C1` [Compound 8, (S,Z)-N-(5-((5-(5-amino-1H-indole-1-carbonyl)-1-methyl-1H-pyrrol-3-yl)carbamoyl)-1-methyl-1H-pyrrol-3-yl)-4-(4-((7-methoxy-2-methylene-5-oxo-2,3,5,11a-tetrahydro-1H-benzo[e]pyrrolo[1,2-a][1,4]diazepin-8-yl)oxy)butanamido)-1-methyl-1H-imidazole-2-carboxamide], the IC50 in assay [1] was 0.43 nM; in assay [2], 0.15 nM; in assay [3], 2.2 nM; in assay [4], 0.84 nM; in assay [5] it was 4 nM.

Regarding `C=C1C[C@H]2C=Nc3cc(OCCCC(=O)Nc4cn(C)c(C(=O)Nc5cc(C(=O)Nc6cc(C(=O)n7ccc8cc(SC)ccc87)n(C)c6)n(C)c5)n4)c(OC)cc3C(=O)N2C1` [Compound 19, (S,Z)-4-(4-(7-methoxy-2-methylene-5-oxo-2,3,5,11a-tetrahydro-1H-benzo[e]pyrrolo[1,2-a][1,4]diazepin-8-yloxy)butanamido)-1-methyl-N-(1-methyl-5-(1-methyl-5-(5-(methylthio)-1H-indole-1-carbonyl)-1H-pyrrol-3-ylcarbamoyl)-1H-pyrrol-3-yl)-1H-imidazole-2-carboxamide], the IC50 in assay [1] amounted to 0.35 nM; in assay [2] it was 0.2 nM; in assay [3], 1.34 nM; in assay [4] it was 0.59 nM; in assay [5], 2.1 nM.
